Data set [1] in a line: Sulforhodamine B (SRB) cytotoxicity assay. In kind it is cell-based, human. The conditions noted are these: human, MRC-5 cells. The procedure:
(§1) Fig. 6 Selective inhibition of PARG by xanthine derivative JA2131. a Clonogenic survival assays of PC3, MDA-MB-231, and MCF-7 cells treated with PARGi. Cells were treated with either DMSO or 10 µM JA2131 for 2 h, irradiated with 3 Gy (MDA-MB-231 and MCF-7), 7 Gy (PC3) IR and grown for ~2 weeks, then colonies were fixed with methanol and stained with crystal violet. The results of three independent experiments are shown. Error bars = the standard error of the mean (SEM). b dose-response of JA2131 in MDA-MB-231 cells with and without IR. Cells were treated with designated concentrations of JA2131 for 2 h and then either left untreated or exposed to 3 Gy IR and allowed to recover for 1 h before lysis. Total protein was immunoblotted with anti-PAR antibody (upper panel), stripped and reprobed with anti-PCNA as a loading control. c MDA-MB-231 cells with stable scrambled shRNA (WT) or stable PARG shRNA, knockdown (KD), were treated with 5 μM JA2131 for 2 h, lysed and then total lysates were immunoblotted for anti-PAR (upper panel) followed by anti-PARG (upper middle panel), anti-PARP1 (lower middle panel) and anti-actin (bottom panel) antibody. […] Stable cells with scramble shRNA (control) and shPARG (PARG-KD) cells were treated with an increasing concentration of JA2131 for growth inhibitory IC50 determination. The data was normalized against 100% survival at the lowest inhibitor concentration. Error bars show the percent coefficient of variation. Equivalent concentrations of DMSO were used as a negative control. e The cytotoxicity of JA2131 along with PDD, Veliparib and Doxorubicin against MRC-5 cells. Error bars show the percent coefficient of variation. f CETSA for in-cell JA2131 target engagement. Normalized anti-PARG western blot intensities of three independent experiments were fitted as above and the estimated aggregation temperature (Tagg) is shown in the tabulated insert. Source Data are provided as a Source Data file.

A short description of data set [2]: Sulforhodamine B (SRB) cytotoxicity assay. The conditions noted are these: human, A172 glioblastoma cells. The procedure: (§2) Normalized % viabilities are plotted against log concentration. Error bars show the percent coefficient of variation. […] Mann-Whitney test was used to generate the p-value. The DNA spread assay is the representation of two independently repeated experiments. Source Data are provided as a Source Data file.
(§3) Cells were plated in 96-well plates, treated as designated in reduced 5% FBS and fixed with trichloroacetic acid after 72 h, as previously described by[43]. […] Colorimetric or fluorescence analysis was performed in a FlexStation 3, using SoftMax Pro 7.0, Molecular Devices. Normalized graphs were generated with Prism 8 software, non-linear 4-parameter data fitting was performed for IC50 calculation.

The test system of the next data set is A172 glioblastoma cells. As to the kind of experiment: Sulforhodamine B (SRB) cytotoxicity assay. The procedure: as §2, §3
Data set [3] deals with PC3 cells. Kind of data set: Sulforhodamine B (SRB) cytotoxicity assay. The conditions noted are these: 72 h, without IR.
A further data set deals with MCF-7 cells. As to the kind of experiment: Clonogenic survival assay. In kind it is cell-based, human. Here is the method: as §1
(§4) PC3, MDA-MB-231 cells were maintained in RPMI 1640, MCF-7 cells in Eagle’s Minimum Essential Medium (EMEM), MRC-5 cells in Eagle’s Minimum Essential Medium and Hela and U2OS cells in Dulbecco’s modified Eagle’s high glucose medium (DMEM) supplemented with 10% (vol/vol) fetal bovine serum (FBS) and 1% antibiotic/antimycotic (Lonza) in a humidified incubator with 10% CO2. All cell lines were purchased from ATCC and regularly checked for mycoplasma and cell authentication. SUM 149PT cells were cultured in F-12 Hams (Gibco) supplemented with 5% fetal bovine serum, insulin, and hydrocortisone. Colony formation assays were carried out in 6-well plates, 500 cells were used per well and following designated treatment, and colonies were grown for 2 weeks. Cells were fixed with methanol (100%), stained with crystal violet and analyzed using a GelCount instrument (Oxford Optronix Ltd). Crystal Violet C6158 was purchased from Sigma. PARG knockdown cells were generated by infecting MDA-MB-231 cells with shPARG lentiviral particles (sc-106355-V, Santa Cruz Biotechnology), which contain a pool of three shRNA plasmids. After 24 h infection, 3 µg/ml puromycin (Invitrogen) was added and antibiotic-resistant cells were further expanded and used for experimentation. Sequence-1; hairpin sequence: […], sense: […]tt, Antisense: […]tt. Sequence-2; hairpin sequence, […]-[…], sense: […]tt, antisense: […]tt. Sequence-3; hairpin sequence: […]-[…], sense: […]tt, antisense: […]-GGUUUCCtt. Control cells were generated using the same process except that scramble lentiviral particles with scrambled sequences were used (sc-108080).
(§5) Supplementary Fig. 8: Clonogenic survival of cells in the presence of PARGi and PARPi (a)
(§6) Clonogenic survival of PC3 cells in response to indicated compounds. ( b) Clonogenic survival of
(§7) MDA-MB-231 cells in response to i ndicated compounds. (c) Clonogenic survival of MCF -7 cells
(§8) in response to indicated compounds. […]

Data set [4] has as its system PC3 cells. As to the kind of experiment: Clonogenic survival assay. In kind it is cell-based, human. The conditions noted are these: PC3. Here is the method:
as §1, §4, §5, §6, §7, §8

Experimental findings from publication PMC6906431, “Selective small molecule PARG inhibitor causes replication fork stalling and cancer cell death” (Nature Communications, 2019) are described below.

The structures appear in SMILES notation. Where “and” joins values, the source holds several entries; their conditions need not be identical. Equal entries are not always repeated.

Take `C[C@]1(c2nc3c(C(N)=O)cccc3[nH]2)CCCN1` [Veliparib]: the viability at 72 h, 1.95 µM in data set [1] (log [concentration] μM 0.29) was found to be 90.5%. Also, the viability at 72 h, 3.89 µM in data set [1] (log [concentration] μM 0.59) amounted to 94.5%. The viability at 72 h, 7.76 µM in data set [1] (log [concentration] μM 0.89) stood at 86%. The viability at 72 h, 15.5 µM in data set [1] (log [concentration] μM 1.19) was 85.3%. In addition, the viability at 72 h, 30.9 µM in data set [1] (log [concentration] μM 1.49) was 89%. Besides, the viability at 72 h, 63.1 µM in data set [1] (log [concentration] μM 1.8) stood at 77.6%. Moreover, the viability at 72 h, 126 µM in data set [1] (log [concentration] μM 2.1) worked out at 70.3%. Further, in data set [1] (log [concentration] μM 2.4), the viability at 72 h, 251 µM was 58.2%. Besides, the viability at 72 h, 501 µM in data set [1] (log [concentration] μM 2.7) worked out at 34.2%. In data set [1] (log [concentration] μM -0.01), the viability at 72 h, 0.977 µM came to 89.2%. Besides, in data set [1] (log [concentration] μM -0.31), the viability at 72 h, 0.49 µM worked out at 90.8%. In data set [1] (log [concentration] μM -0.61), the viability at 72 h, 0.245 µM came to 100%. In data set [2], the viability at 72 h, 0.244 µM amounted to 100%; the viability at 72 h, 0.488 µM was determined as 104%; the viability at 72 h, 0.977 µM is 102%; the viability at 72 h, 1.95 µM was determined as 106%. Besides, in data set [2], the viability at 72 h, 3.91 µM worked out at 101%; the viability at 72 h, 7.82 µM amounted to 104%; the viability at 72 h, 15.6 µM came out at 98.6%; the viability at 72 h, 31.3 µM was 94.1%. Also, in data set [2], the viability at 72 h, 62.5 µM stood at 88.5%; the viability at 72 h, 125 µM worked out at 69.1%; the viability at 72 h, 250 µM was determined as 27.2%; the viability at 72 h, 500 µM was 15.4%. In the data set with A172 glioblastoma cells (Homo sapiens, A 172, 72 h), this molecule returned a half-maximal inhibitory concentration (IC50) of 153 ± 44.2 µM.
Regarding `[NH2][Pt]1([NH2])[O]CC(=O)[O]1` [Nedaplatin], the figures for the IC50 in the data set on A172 glioblastoma cells (72 h) and with PC3 cells [3] were 67.6 ± 46.5 µM and 4.98 ± 0.2 µM, respectively. Also, the Viability is 99.176% with A172 glioblastoma cells (72 h, log [concentration] μM 0.291); 95.055% in the data set on A172 glioblastoma cells (72 h, log [concentration] μM 0.592); 88.736% in the data set on A172 glioblastoma cells (72 h, log [concentration] μM 0.893); 69.505% in the data set with A172 glioblastoma cells (72 h, log [concentration] μM 1.495); 60.165% in the data set on A172 glioblastoma cells (72 h, log [concentration] μM 1.796); 45.055% in the data set on A172 glioblastoma cells (72 h, log [concentration] μM 2.097). The Viability with A172 glioblastoma cells (72 h, log [concentration] μM 2.398) is 21.154%; in the data set with A172 glioblastoma cells (72 h, log [concentration] μM 2.699), 18.681%; in the data set on A172 glioblastoma cells (72 h, log [concentration] μM 3), 18.681%; in the data set with A172 glioblastoma cells (72 h, log [concentration] μM -0.01) it was 107.967%; in the data set with A172 glioblastoma cells (72 h, log [concentration] μM -0.312) it was 100%; with PC3 cells [3] (log [concentration] μM 0.291), 99.072%. Further, the Viability in the data set with PC3 cells [3] (log [concentration] μM 0.592) amounted to 89.849%; in the data set on PC3 cells [3] (log [concentration] μM 0.893), 9.664%; in the data set on PC3 cells [3] (log [concentration] μM 1.194), 8.121%; in the data set with PC3 cells [3] (log [concentration] μM 1.495), 6.671%; in the data set with PC3 cells [3] (log [concentration] μM 1.796), 7.309%; in the data set on PC3 cells [3] (log [concentration] μM -0.01), 100%.
Take `Cn1c(=S)c2[nH]c(SCCN3CCOCC3)nc2n(C)c1=O` [JA-2131]: the “colony count (clonogenic survival, raw replicate data, Supplementary Figure 8)” value in the data set with MCF-7 cells (Experiment-1, replicates 1-6) was 184 and 217 and 183 and 124 and 178 and 153; with MCF-7 cells (Experiment-2, replicates 1-6), 141 and 190 (2×) and 218 and 209 and 269; with MCF-7 cells (Experiment-3, replicates 1-6), 154 and 188 and 126 and 153 and 169 and 142; with PC3 cells [4] (Experiment-1, replicates 1-6), 191 and 210 and 213 and 170 and 222 and 223; in the data set on PC3 cells [4] (Experiment-2, replicates 1-6), 174 and 164 and 144 and 181 and 152 and 125; in the data set on PC3 cells [4] (Experiment-3, replicates 1-6), 164 and 128 and 108 and 141 and 148 and 123.
